Here are results for 24 molecules from US20250145601A1, “NOVEL BICYCLIC COMPOUNDS AS RAD51 INHIBITORS” (SATYA THERAPEUTICS, INC., priority 2022, published 2025).

Molecules are shown by their SMILES. Bounds are passed on as bounds.

The test system of the test is MDA MB 231 cells. Nature of the test: Antiproliferation assay in MDA MB 231 cells (Cell Titer Glo). Type of test: cell-based. Conditions: Homo sapiens, MDA-MB-231, 216 h, MDAMB231 cell line, 9 day treatment, racemic compounds (Table 2). Here is the method: Antiproliferation Assay in MDA MB 231 Cells MDA MB 231 cells were seeded in 96 well plate at a seeding density of 250 cells/well. The cells were allowed to settle overnight under standard incubator conditions (37° C., 5% CO2). Next day treatment with increasing dose of test compounds and reference compounds were done to the respective wells and the cells were further incubated under standard cell culture conditions for another 4 days. On the 5th day, media was replenished with fresh treatment and cells were incubated for a total of 9 day treatment period. On the day of termination, appropriate volume of Cell Titer Glo reagent was added to the treatment (and control) wells and the plates were kept on a plate shaker @300 RPM for 15 min. Luminiscence reading (RLU) was […] RLU is directly proportional to ATP content and is directly related to number of metabolically active cells in the respective well. Calculation: a. Blank Correction: RLU of the Wells Containing No Cells is Considered as Blank and Subtracted from all RLU of the Treated and Control Wells [formula]
On to `CCC(=O)N1N=C(c2c(C)c3ccccc3[nH]c2=O)CC1c1cn(C)c2ccccc12` (stereo not drawn) [Example 12, 4-Methyl-3-(5-(1-methyl-1H-indol-3-yl)-1-propionyl-4,5-dihydro-1H-pyrazol-3-yl)quinolin-2(1H)-one], for which the inhibition at 10 µM was at least 50%. For the molecule `CCC(=O)N1N=C(c2c(C)c3cccnc3[nH]c2=O)CC1c1ccc(OC)cc1` (stereo not drawn) [Example 13, 3-(5-(4-Methoxyphenyl)-1-propionyl-4,5-dihydro-1H-pyrazol-3-yl)-4-methyl-1,8-naphthyridin-2(1H)-one], the inhibition at 10 µM is at least 50%. In the case of `CCC(=O)N1N=C(c2c(C)c3cncnc3[nH]c2=O)CC1c1ccc(OC)cc1` (stereo not drawn) [Example 14, 6-(5-(4-Methoxyphenyl)-1-propionyl-4,5-dihydro-1H-pyrazol-3-yl)-5-methylpyrido-[2,3-d]pyrimidin-7(8H)-one], the inhibition at 10 µM was below 50%. `CCC(=O)N1N=C(c2c(C)c3cc(Br)ccc3[nH]c2=O)CC1c1ccc(OC)cc1` (stereo not drawn) [Example 15, 6-bromo-3-(5-(4-methoxyphenyl)-1-propionyl-4,5-dihydro-1H-pyrazol-3-yl)-4-methylquinolin-2(1H)-one] showed an inhibition at 10 µM of at least 50%. For the molecule `CCC(=O)N1N=C(c2c(C)c3nc(Cl)ccc3[nH]c2=O)CC1c1ccc(OC)cc1` (stereo not drawn) [Example 16, 6-chloro-3-(5-(4-methoxyphenyl)-1-propionyl-4,5-dihydro-1H-pyrazol-3-yl)-4-methyl-1,5-naphthyridin-2(1H)-one], the inhibition at 10 µM was at least 50%. In turn, `CCC(=O)N1N=C(c2cc3cc(Cl)ccc3[nH]c2=O)CC1c1ccc(OC)cc1` (stereo not drawn) [Example 17, 6-Chloro-3-(5-(4-methoxyphenyl)-1-propionyl-4,5-dihydro-1H-pyrazol-3-yl)quinolin-2(1H)-one] returned an inhibition at 10 µM of at least 50%. `CCC(=O)N1N=C(c2c(C)c3cc(Cl)ccc3n(C)c2=O)CC1c1ccc(OC)cc1` (stereo not drawn) [Example 18, 6-chloro-3-(5-(4-methoxyphenyl)-1-propionyl-4,5-dihydro-1H-pyrazol-3-yl)-1,4-dimethylquinolin-2(1H)-one] showed an inhibition at 10 µM below 50%. Consider `CCC(=O)N1N=C(c2c(=O)[nH]cc3ccccc23)CC1c1ccc(OC)cc1` (stereo not drawn) [Example 19, 4-(5-(4-methoxyphenyl)-1-propionyl-4,5-dihydro-1H-pyrazol-3-yl)isoquinolin-3(2H)-one], for which the inhibition at 10 µM is below 50%. `CCC(=O)N1N=C(c2c(C)c3ccsc3[nH]c2=O)CC1c1ccc(OC)nc1` (stereo not drawn) [Example 21, 5-(5-(6-methoxypyridin-3-yl)-1-propionyl-4,5-dihydro-1H-pyrazol-3-yl)-4-methylthieno[2,3-b]pyridin-6(7H)-one] had an inhibition at 10 µM of at least 50%. For `CCC(=O)N1N=C(c2cc3ccsc3[nH]c2=O)CC1c1ccc(OC)cc1` (stereo not drawn) [Example 22, 5-(5-(4-methoxyphenyl)-1-propionyl-4,5-dihydro-1H-pyrazol-3-yl)thieno[2,3-b]pyridin-6(7H)-one], the inhibition at 10 µM was at least 50%. `CCC(=O)N1N=C(c2c(C3CC3)c3cc(Cl)ccc3[nH]c2=O)CC1c1ccc(OC)cc1` (stereo not drawn) [Example 23, 6-chloro-4-cyclopropyl-3-(5-(4-methoxyphenyl)-1-propionyl-4,5-dihydro-1H-pyrazol-3-yl)quinolin-2(1H)-one] displayed an inhibition at 10 µM of at least 50%. `CCC(=O)N1N=C(c2c(C)c3cc(Cl)ccc3[nH]c2=O)CC1c1cn(C)c2ccccc12` (stereo not drawn) [Example 24, 6-chloro-4-methyl-3-(5-(1-methyl-1H-indol-3-yl)-1-propionyl-4,5-dihydro-1H-pyrazol-3-yl)quinolin-2(1H)-one] came in with an inhibition at 10 µM of at least 50%. `CCC(=O)N1N=C(c2c(C)c3ccsc3[nH]c2=O)CC1c1ccc(OC)cn1` (stereo not drawn) [Example 25, 5-(5-(5-methoxypyridin-2-yl)-1-propionyl-4,5-dihydro-1H-pyrazol-3-yl)-4-methylthieno[2,3-b]pyridin-6(7H)-one] registered an inhibition at 10 µM below 50%. `CCC(=O)N1N=C(c2c(C)c3ccsc3[nH]c2=O)CC1c1ccc(=O)[nH]c1` (stereo not drawn) [Example 26, 4-methyl-5-(5-(6-oxo-1,6-dihydropyridin-3-yl)-1-propionyl-4,5-dihydro-1H-pyrazol-3-yl)thieno[2,3-b]pyridin-6(7H)-one] yielded an inhibition at 10 µM below 50%.

The molecule `CCC(=O)N1N=C(c2c(C)c3ccsc3[nH]c2=O)CC1c1ccc(OC)s1` (stereo not drawn) [Example 29, 5-(5-(5-methoxythiophen-2-yl)-1-propionyl-4,5-dihydro-1H-pyrazol-3-yl)-4-methylthieno[2,3-b]pyridin-6(7H)-one] displayed an inhibition at 10 µM of at least 50%.

As for `CCC(=O)N1N=C(c2c(C)c3ccsc3[nH]c2=O)CC1c1cnc(OC)s1` (stereo not drawn) [Example 30, 5-(5-(2-methoxythiazol-5-yl)-1-propionyl-4,5-dihydro-1H-pyrazol-3-yl)-4-methylthieno[2,3-b]pyridin-6(7H)-one], the inhibition at 10 µM was at least 50%. As to `CCC(=O)N1N=C(c2c(C)c3ccsc3[nH]c2=O)CC1c1csc(Br)c1` (stereo not drawn) [Example 31, 5-(5-(5-bromothiophen-3-yl)-1-propionyl-4,5-dihydro-1H-pyrazol-3-yl)-4-methylthieno[2,3-b]pyridin-6(7H)-one], the inhibition at 10 µM was below 50%. Molecule `CCC(=O)N1N=C(c2c(C)c3ccsc3[nH]c2=O)CC1c1ccccc1` (stereo not drawn) [Example 32, 4-methyl-5-(5-phenyl-1-propionyl-4,5-dihydro-1H-pyrazol-3-yl)thieno[2,3-b]pyridin-6(7H)-one] yielded an inhibition at 10 µM below 50%. Turning to `CCC(=O)N1N=C(c2c(C)c3ccsc3[nH]c2=O)CC1c1cc(Br)cs1` (stereo not drawn) [Example 34, 5-(5-(4-bromothiophen-2-yl)-1-propionyl-4,5-dihydro-1H-pyrazol-3-yl)-4-methylthieno[2,3-b]pyridin-6(7H)-one], the inhibition at 10 µM is below 50%.

Regarding `CCC(=O)N1N=C(c2c(C)c3ccsc3[nH]c2=O)CC1c1ccncc1` (stereo not drawn) [Example 35, 4-methyl-5-(1-propionyl-5-(pyridin-4-yl)-4,5-dihydro-1H-pyrazol-3-yl)thieno[2,3-b]pyridin-6(7H)-one], the inhibition at 10 µM is below 50%. In the case of `CCC(=O)N1N=C(c2c(C)c3ccsc3[nH]c2=O)CC1c1cccnc1` (stereo not drawn) [Example 36, 4-methyl-5-(1-propionyl-5-(pyridin-3-yl)-4,5-dihydro-1H-pyrazol-3-yl)thieno[2,3-b]pyridin-6(7H)-one], the inhibition at 10 µM is below 50%. Next, `CCC(=O)N1N=C(c2c(C)c3ccsc3[nH]c2=O)CC1c1ccc(N2CCN(C)CC2)cc1` (stereo not drawn) [Example 38, 4-methyl-5-(5-(4-(4-methylpiperazin-1-yl)phenyl)-1-propionyl-4,5-dihydro-1H-pyrazol-3-yl)thieno[2,3-b]pyridin-6(7H)-one]: at least 50%. `CCC(=O)N1N=C(c2c(C)c3ccsc3[nH]c2=O)CC1c1ccc(N(C)C)cc1` (stereo not drawn) [Example 39, 5-(5-(4-(dimethylamino)phenyl)-1-propionyl-4,5-dihydro-1H-pyrazol-3-yl)-4-methylthieno[2,3-b]pyridin-6(7H)-one]: the inhibition at 10 µM is at least 50%. Then `CCC(=O)N1N=C(c2c(C)c3c(Cl)csc3[nH]c2=O)CC1c1ccc(OC)cc1` (stereo not drawn) [Example 40, 3-chloro-5-(5-(4-methoxyphenyl)-1-propionyl-4,5-dihydro-1H-pyrazol-3-yl)-4-methylthieno[2,3-b]pyridin-6(7H)-one], with below 50%.
